In US20230158042A1, “COMBINATION CANCER THERAPY WITH PENTAAZA MACROCYCLIC RING COMPLEX AND HORMONE THERAPY AGENT” (Galera Labs, LLC, priority 2020, published 2023):

How the values were obtained:
[1] = system: T47D-HTR cells; assay: Clonogenic cell survival, hydroxy-Tam-resistant T47D cells with GC4419; assay type: cell-based, human; settings: 5 µM GC4419 for 5 days; 1 µM hydroxy-Tam
Method: (§1) Clonogenic cell survival assay. For the clonogenic survival analysis, exponentially growing cells were replated using appropriate dilutions, and clonogenic survival was evaluated after 14 days in regular growth medium. Cells were stained with crystal violet, and colonies of >50 cells were counted and utilized to calculate clonogenic survival^46.
To test parameters indicative of oxidative stress, a clonogenic assay with hydroxy-Tam and MnPAM dismutase mimetic treatments was performed. Cells were plated at a density of 50,000 cells per 60-mm dish and treated with 1 µM hydroxy-Tam (Sigma) and 5 µM GC4419 (Galera Therapeutics) for a total of 120 h. This protocol was repeated with a fresh medium change every 24 h for 5 days. On day 6, the cells were trypsinized, counted, and replated in control medium using appropriate dilutions, and clonogenic survival was evaluated.

[2] = system: T47D-HTR cells; assay: Ki-67 staining in T47D-HTR cells; assay type: cell-based, human; settings: 5 µM GC4419 for 5 days
From the text: With respect to FIG. 16a, the data from FIG. 7i, where MCF7-HTR cells were stained for Ki-67, as well as DAPI, were counted with ImageJ and quantified for average Ki-67 intensity as shown in the bar graph. With respect to FIGS. 16b and 16c, T47D and T47D-HTR cells were stained for Ki-67 as well as DAPI, and particles in the nucleus were counted with ImageJ and quantified for average Ki-67 intensity as shown in the bar graph. In FIGS. 16d and 16e, MCF7-HTR cells, and in FIGS. 16f and 16g, T47D-HTR cells, were treated with 5 µM GC4419 and/or 1 µM 4-hydroxy-Tam for 5 days, and then stained for Ki-67 as well as DAPI. Quantifications of average Ki-67 intensity are shown in the bar graphs. All experiments were done in triplicate. Error bars represent ± 1 SEM. ***p < 0.001. Representative images are shown.
Cells seeded on glass coverslips were fixed in 4% paraformaldehyde and then blocked with 1% BSA and 10% normal goat serum in 1x PBS. Cells were incubated with anti-Ki-67 (c-bioscience) antibody in 1x PBS followed by incubation with goat anti-rabbit IgG conjugated with Alexa Fluor 647 (Invitrogen) in 1x PBS with 5% goat serum. Cells were washed in 1x PBS, mounted, and imaged with a fluorescence microscope. Fluorescence images were captured using a laser scanning confocal microscope (Nikon A1 R). The paired images in all the figures were collected at the same gain and offset settings. […]

[3] = system: T47D-MnSOD^K68Q cells; assay: Ki-67 staining in T47D-MnSOD^K68Q cells; assay type: cell-based, human; settings: 5 µM GC4419 for 5 days
Method: MCF7-MnSOD^K68Q cells (in FIGS. 17a and 17b) and T47D-MnSOD^K68Q cells (in FIGS. 17c and 17d) were treated with 5 µM GC4419 and/or 1 µM 4-hydroxy-Tam for 5 days, and then stained for Ki-67 as well as DAPI. Quantifications of average Ki-67 intensity are shown in the bar graphs. In FIG. 17e, MCF7 and MCF7-HTR cells were implanted into both hind limbs of nude mice and tumor volumes were measured every 3 days for 6 weeks and the number of tumors that successfully implanted versus the total number of mice infected with MCF7 and MCF7-HTR as well as the average tumor weight and tumor size are shown. Representative images are shown. All experiments were done in triplicate. Error bars represent ± 1 SEM. ***p < 0.001.
Cells seeded on glass coverslips were fixed in 4% paraformaldehyde and then blocked with 1% BSA and 10% normal goat serum in 1x PBS. Cells were incubated with anti-Ki-67 (c-bioscience) antibody in 1x PBS followed by incubation with goat anti-rabbit IgG conjugated with Alexa Fluor 647 (Invitrogen) in 1x PBS with 5% goat serum. Cells were washed in 1x PBS, mounted, and imaged with a fluorescence microscope. Fluorescence images were captured using a laser scanning confocal microscope (Nikon A1 R). The paired images in all the figures were collected at the same gain and offset settings. Post-collection processing was applied uniformly to all paired images.

[4] = system: LNCaP-ENZR cells; assay: Clonogenic cell survival in LNCaP-ENZR cells; assay type: cell-based; settings: GC4419 20 µM for 5 days, in the presence of ENZ
Method: FIGS. 21a-21b are a chart and graph showing that pharmacologically mimicking the activity of deacetylated lysine 68 MnSOD with a manganese pentaazamacrocyclic dismutase mimetic both inhibited the growth of LNCaP-ENZR tumors and reversed the enzalutamide resistance in LNCaP-ENZR / LNCaP—MnSOD^K68Q cells and tumors. In FIG. 21a, clonogenic cell survival experiments were performed in LNCaP-ENZR (left two bars) and LNCaP—MnSOD^K68Q (right two bars) treated with ENZ, with or without GC4419 (20 µM) for 5 days. […] Tumor volumes were measured three times a week for 46 days. For each group n=10. Error bars ± 1 SEM. All experiments done in triplicate. **p < 0.01.

[5] = system: MCF7-MnSOD^K68Q cells; assay: Clonogenic cell survival in MCF7-MnSOD^K68Q cells; assay type: cell-based, human; settings: GC4419 10 µM alone
Method: FIGS. 25a-25b show clonogenic cell survival studies in MCF7-MnSOD^K68Q cells exposed to either: Fulv at 100 nM (in FIG. 25a); or Palb at 0.5 µM (in FIG. 25b) using standard methods. […] Error bars are ± 1 SEM. Experiments in triplicate. *** p < 0.001.
as §1

[6] = system: MCF-7-MnSOD^K68Q cells; assay: Clonogenic cell survival after 5 Gy ionizing radiation in MCF-7-MnSOD^K68Q cells; assay type: cell-based, human; settings: 5 µM GC4419 for 5 days
Method: FIGS. 30a-30b are plots showing that mimicking acetylation of MnSOD—K68 with MnSOD^K68Q expression induces ionizing radiation resistance (IRR) in breast cancer cells, and that pharmacologically mimicking the activity of deacetylated lysine 68 MnSOD with a manganese pentaazamacrocyclic dismutase mimetic reverses this IRR. […] All experiments were done in triplicate. Error bars represent ± 1 SEM. ***p < 0.001. Data were analyzed by a t-test.

[7] = system: rat model; settings: cited from earlier work
[8] = system: head-and-neck cancer patients; settings: patients undergoing chemoradiation therapy, Phase 1 trial; cited from earlier work
[9] = system: mice lacking Sirt3; settings: IP injection with 2 mg/kg 30 minutes before IR; cited from earlier work

Compound: [Cl][Mn][Cl].c1cc2nc(c1)CN[C@H]1CCCC[C@@H]1NCCN[C@H]1CCCC[C@@H]1NC2 [GC4419]
- hydroxy-Tam resistance (clonogenic cell survival) [1]: became sensitive to hydroxy-Tam
- Ki-67 IHC staining [2]: decreased Ki-67 IHC staining
- Ki-67 IHC staining [3]: reversed the increase in Ki-67 IHC staining
- tumor cell survival (clonogenic) [4]: significant decrease in tumor cell survival in the presence of ENZ
- cell growth (clonogenic) [5]: inhibited the growth of MnSOD^K68Q breast cancer cells
- ionizing radiation resistance (IRR) phenotype, clonogenic cell survival [6]: reversed the IRR phenotype
- VEGFr inhibitor-induced pulmonary disease [7]: attenuate VEGFr inhibitor-induced pulmonary disease
- oral mucositis [8]: reduce oral mucositis
- liver damage [9]: attenuated liver damage
